Assay [1] concerns the target T1, PLCγ1^S345F (Homo sapiens, UniProt P19174, I813T/S345F).
T1 construct: His-tag (N); Myc-tag (C); made in house; host or cells: Escherichia coli T7 Express lysY/Iq
T1 sequence (P19174 1-1291 isoform P19174-2 S345F/I813T): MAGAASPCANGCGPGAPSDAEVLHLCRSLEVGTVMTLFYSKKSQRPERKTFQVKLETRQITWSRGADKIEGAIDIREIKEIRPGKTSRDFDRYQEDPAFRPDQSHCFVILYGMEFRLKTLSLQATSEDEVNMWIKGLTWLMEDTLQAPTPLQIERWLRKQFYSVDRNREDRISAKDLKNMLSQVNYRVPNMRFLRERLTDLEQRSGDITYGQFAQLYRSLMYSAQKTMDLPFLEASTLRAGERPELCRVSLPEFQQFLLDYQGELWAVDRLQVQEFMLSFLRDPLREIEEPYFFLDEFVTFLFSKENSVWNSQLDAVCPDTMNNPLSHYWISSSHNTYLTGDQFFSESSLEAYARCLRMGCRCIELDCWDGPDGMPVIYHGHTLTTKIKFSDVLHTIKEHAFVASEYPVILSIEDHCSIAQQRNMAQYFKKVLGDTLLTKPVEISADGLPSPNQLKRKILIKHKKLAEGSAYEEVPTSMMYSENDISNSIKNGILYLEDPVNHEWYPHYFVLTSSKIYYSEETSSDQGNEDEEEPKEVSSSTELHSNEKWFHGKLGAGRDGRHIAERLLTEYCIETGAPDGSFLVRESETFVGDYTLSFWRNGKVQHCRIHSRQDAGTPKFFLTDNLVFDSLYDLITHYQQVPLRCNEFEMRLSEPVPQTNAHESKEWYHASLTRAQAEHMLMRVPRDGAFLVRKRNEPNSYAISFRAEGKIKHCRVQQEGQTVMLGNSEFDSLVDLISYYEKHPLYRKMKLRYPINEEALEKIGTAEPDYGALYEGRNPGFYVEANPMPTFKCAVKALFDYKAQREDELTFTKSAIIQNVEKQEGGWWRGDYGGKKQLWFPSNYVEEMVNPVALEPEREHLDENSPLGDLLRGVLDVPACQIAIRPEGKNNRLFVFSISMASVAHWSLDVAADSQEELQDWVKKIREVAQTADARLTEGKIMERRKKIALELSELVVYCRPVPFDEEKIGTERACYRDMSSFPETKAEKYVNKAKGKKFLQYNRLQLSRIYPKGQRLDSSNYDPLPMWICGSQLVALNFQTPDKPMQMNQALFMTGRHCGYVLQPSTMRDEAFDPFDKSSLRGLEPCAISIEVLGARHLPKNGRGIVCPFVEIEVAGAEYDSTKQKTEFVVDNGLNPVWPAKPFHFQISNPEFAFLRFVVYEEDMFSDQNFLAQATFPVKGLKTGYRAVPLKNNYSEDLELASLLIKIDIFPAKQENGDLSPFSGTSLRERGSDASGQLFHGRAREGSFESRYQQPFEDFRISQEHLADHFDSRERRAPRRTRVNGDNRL
The experiment in a line: Fluorescence polarisation competition with TNP-ATP. Particulars: fixed TNP-ATP. It is filed as binding. On the procedure:
Experiments were performed in black small volume 384-well plates (Greiner) on a Pherastar FS microplate reader (BMG Labtech) utilising an FP module with Excitation 485 nm and Emission 520 nm. […] PLCγ1^S345F protein was titrated against the fixed concentration of TNP-ATP and the FP data fit in GraphPad Prism using the One site Total binding model. […] Equal amounts of DMSO only were added in a parallel FP experiment. Generated data was also fit in GraphPad Prism using the One site -Total binding model. Each experiment was performed in triplicate and the data presented as the mean and SD.

A further assay concerns the target T2, PLCδ1^Δ44 (Homo sapiens, UniProt P51178, DEL445-487).
T2 construct: Avi-tag (N); His-tag (N); expressed in transfected cells
T2 sequence (P51178 with tags, fused parts or gaps DEL445-487): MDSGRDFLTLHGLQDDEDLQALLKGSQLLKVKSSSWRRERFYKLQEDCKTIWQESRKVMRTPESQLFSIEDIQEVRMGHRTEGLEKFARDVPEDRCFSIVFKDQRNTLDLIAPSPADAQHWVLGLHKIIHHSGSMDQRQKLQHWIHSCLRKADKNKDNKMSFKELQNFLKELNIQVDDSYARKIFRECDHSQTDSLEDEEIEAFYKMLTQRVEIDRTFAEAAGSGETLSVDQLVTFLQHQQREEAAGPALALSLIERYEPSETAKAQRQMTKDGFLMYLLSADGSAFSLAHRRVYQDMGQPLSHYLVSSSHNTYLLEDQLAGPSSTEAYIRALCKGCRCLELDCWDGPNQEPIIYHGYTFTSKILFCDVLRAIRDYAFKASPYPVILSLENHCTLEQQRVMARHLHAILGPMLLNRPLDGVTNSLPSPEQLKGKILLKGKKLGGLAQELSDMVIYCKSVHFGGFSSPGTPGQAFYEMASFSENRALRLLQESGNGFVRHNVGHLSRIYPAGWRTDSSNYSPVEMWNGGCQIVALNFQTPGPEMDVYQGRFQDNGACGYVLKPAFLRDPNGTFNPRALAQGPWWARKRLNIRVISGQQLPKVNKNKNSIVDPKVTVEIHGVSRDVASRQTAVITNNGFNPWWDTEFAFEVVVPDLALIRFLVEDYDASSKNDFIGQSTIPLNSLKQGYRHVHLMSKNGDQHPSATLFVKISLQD
The experiment in a line: IP-ONE assay in HEK stable cell line expressing PLCδ1^Δ44. Format: cell-based. An excerpt: (§1) For generating HEK cell lines that stably express PLC variants, an in-house Gateway compatible, Lenti viral vector was generated using In-Fusion cloning (Takara Bio) following manufacturer’s protocols. The vector backbone consisted of pLenti PGK Puro DEST (Addgene 19068). A KOZAK sequence, Avi-tag and His-tag (KAH cassette) was inserted between the PGK promoter and the attR1 vector regions. An IRES2 EmGFP cassette was inserted between the attR2 and WPRE regions. Both cassettes were PCR amplified from vector pHR-CMV-TetO2_3C-Avi-His6_IRES-EmGFP (Addgene 113888). Finally, a BirA ORF was cloned in-frame upstream of the EmGFP, which would express as a BirA-EmGFP fusion protein. The resulting Gateway compatible destination vector was used in the LR reaction (Thermo Fisher) with pENTR207 clones containing the PLCγ1^S345F or an activated version of PLCδ1, where the amino acids 445–487 had been deleted (PLCδ1Δ^44), to generate their respective expression clones ready for preparing stable cell lines in HEK.
(§2) Stable cell lines overexpressing PLCγ1^S345F or PLCδ1^Δ44 were prepared as described in [28]. […] Fluorescence-activated cell sorting (FACS) was used to select the top 10% of GFP-expressing cells. […]
(§3) PLC activity in cell lines was measured using the IP-ONE assay according to the manufacturer’s instructions as described in [28]. […]

Assay [2] concerns the target T3, PLCγ1^S345F (Homo sapiens, UniProt P19174, S345F).
T3 construct: Avi-tag (N); His-tag (N); expressed in transfected cells
T3 sequence (P19174 1-1290 S345F): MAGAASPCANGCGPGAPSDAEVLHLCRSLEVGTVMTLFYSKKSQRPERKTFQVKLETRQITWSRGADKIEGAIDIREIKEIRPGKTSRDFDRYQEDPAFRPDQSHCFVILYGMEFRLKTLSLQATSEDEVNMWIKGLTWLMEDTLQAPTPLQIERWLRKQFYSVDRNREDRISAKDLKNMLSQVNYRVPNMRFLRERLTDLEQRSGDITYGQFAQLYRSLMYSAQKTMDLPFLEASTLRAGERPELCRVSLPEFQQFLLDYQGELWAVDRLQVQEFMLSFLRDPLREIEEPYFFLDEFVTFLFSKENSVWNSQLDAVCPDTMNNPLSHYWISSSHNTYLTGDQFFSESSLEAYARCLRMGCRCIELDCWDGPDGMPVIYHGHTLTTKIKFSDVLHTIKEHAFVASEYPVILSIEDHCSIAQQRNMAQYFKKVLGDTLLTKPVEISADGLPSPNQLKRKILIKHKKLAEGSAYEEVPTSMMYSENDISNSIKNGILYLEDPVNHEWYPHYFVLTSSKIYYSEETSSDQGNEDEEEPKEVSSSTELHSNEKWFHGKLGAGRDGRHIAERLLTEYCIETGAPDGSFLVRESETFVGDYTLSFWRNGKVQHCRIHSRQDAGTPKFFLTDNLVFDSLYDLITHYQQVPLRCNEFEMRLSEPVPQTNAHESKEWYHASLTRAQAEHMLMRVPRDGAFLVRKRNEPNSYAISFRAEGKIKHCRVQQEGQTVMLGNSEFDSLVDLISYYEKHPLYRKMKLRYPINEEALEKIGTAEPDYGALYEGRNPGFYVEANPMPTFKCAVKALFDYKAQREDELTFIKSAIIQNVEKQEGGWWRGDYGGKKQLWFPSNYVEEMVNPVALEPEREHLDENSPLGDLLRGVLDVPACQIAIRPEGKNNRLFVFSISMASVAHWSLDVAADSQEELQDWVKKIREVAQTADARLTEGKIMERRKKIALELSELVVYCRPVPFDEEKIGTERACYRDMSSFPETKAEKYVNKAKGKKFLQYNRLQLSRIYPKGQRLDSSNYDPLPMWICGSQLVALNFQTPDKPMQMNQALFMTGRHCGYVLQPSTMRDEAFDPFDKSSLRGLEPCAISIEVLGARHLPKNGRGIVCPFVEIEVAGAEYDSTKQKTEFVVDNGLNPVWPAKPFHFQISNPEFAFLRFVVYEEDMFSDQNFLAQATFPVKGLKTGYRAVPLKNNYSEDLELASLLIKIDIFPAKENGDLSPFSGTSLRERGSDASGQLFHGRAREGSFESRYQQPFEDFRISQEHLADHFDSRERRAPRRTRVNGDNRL
The assay can be described thus: IP-ONE assay in HEK stable cell line expressing PLCγ1^S345F. It is filed as cell-based.
Excerpt: as §1, §2, §3

Another assay relates to CD95–PLCγ1 interaction. The arrangement: method as in PMID 30429604, PMID 31548507. The note with it: cited from earlier work.
For the next assay, the system named is disease mouse model. The arrangement: method as in PMID 30429604, PMID 31548507. Particulars: cited from earlier work.

Molecules are shown by their SMILES.

Consider `O=P(O)(O)CP(=O)(O)OC[C@H]1O[C@@H](n2cnc3c(NCc4ccccc4)ncnc32)[C@H](O)[C@@H]1O` [PSB 12379], for which the “competition with binding of fluorescently labelled ATP analogue (TNP-ATP)” value on PLCγ1^S345F [1] is recorded as “competed”.

Turning to `CC(=O)OC[C@H]1O[C@@H](n2ncc(=O)[nH]c2=O)[C@H](OC(C)=O)[C@@H]1OC(C)=O` [Azaribine], the “effect on PLC activity of PLCδ1 in stable cell line” value on PLCδ1^Δ44 is “no effect”. At PLCδ1^Δ44 (PLCδ1 Δ44), the “IC50, PLC activity (IP1) in stable cell line” value was “no inhibition”. Also, on PLCγ1^S345F [2], the “inhibition of PLC activity of PLCγ1^S345F in cell-based assay” value was “potently inhibited”. Moreover, the IC50 (as a rule, the concentration that gives 50% inhibition) at PLCγ1^S345F [2] (PLCγ1 S345F, read-out: IC50, PLC activity (IP1) in stable cell line) was 1600 nM.

Consider `CC(C)c1nc(CN(C)C(=O)N[C@H](C(=O)N[C@@H](Cc2ccccc2)C[C@H](O)[C@H](Cc2ccccc2)NC(=O)OCc2cncs2)C(C)C)cs1` [ritonavir], for which the “CD95–PLCγ1 interaction” value in the assay with CD95–PLCγ1 interaction is reported as “disrupt”. For the same compound, the “clinical symptoms in a disease mouse model” value in the assay with disease mouse model is recorded as “alleviating clinical symptoms”.

(Values after publication PMC12687421, “Characterisation of an allosteric site in PLCγ enzymes and implications for development of their specific inhibitors” (Biochemical Journal, 2025).)
